Values of other authors as cited in patent US7351421B2, “Drug-eluting stent having collagen drug carrier chemically treated with genipin” (priority 1996, dated 2008).
“Also recorded” adds a separate entry of the source.

Tests used:
CHO-K1 cells = conditions: in vitro
3T3 fibroblasts = conditions: in vitro
[1] = glutaraldehyde used to crosslink materials
intimal proliferation = conditions: de-endothelialized rabbits, in vivo
[2] = system: intimal proliferative lesion; conditions: in vivo
smooth muscle cell = conditions: in vitro

COC(=O)C1=CO[C@@H](O)[C@@H]2C(CO)=CC[C@H]12 [Genipin]
clastogenic response (genotoxicity) (CHO-K1 cells): does not cause clastogenic response | cytotoxicity compared with glutaraldehyde (3T3 fibroblasts): substantially less cytotoxic; also recorded: significantly less cytotoxic | LD50 i.v. (mice): 382 mg/k

O=CCCCC=O [glutaraldehyde]
crosslinking concentration giving persistent foreign-body reaction [1]: above 0.05% | concentration at which cytotoxic (tissue culture): 10-25 ppm | concentration at which cytotoxic in tissue culture (tissue culture; tissue culture, as low as): ≥ 3 ppm

cyclosporin A
reduction of intimal proliferation (intimal proliferation): no significant reduction | effect on intimal proliferative lesion following arterial balloon catheterization [2]: inhibition | effect on smooth muscle cell proliferation (smooth muscle cell): did not inhibit
